The results in this text go back to EPA's ToxValDB 9.5 (doi:10.2903/j.efsa.2010.1786).

For one series, the system named is Anas platyrhynchos. The settings on record: for LC50: short-term, oral, feed, mortality.
The subject of the next series is Apis mellifera. The settings on record: acute; duration: 48 hours; dermal; mortality.
The subject of another series is Canidae. Conditions: oral, Dog Other.
The test system of the next series is Chalcophaps sp. Conditions: acute; oral; unspecified; mortality.
The subject of a further series is Colinus virginianus. Conditions: acute; oral; diet; mortality.
The test system of another series is Daphnia magna. The settings on record: chronic/long-term; duration: 21 days; reproduction.
A further series relates to Encarsia formosa. The settings on record: not reported; mortality.
The test system of another series is Lepomis macrochirus. Conditions: acute; duration: 96 hours; mortality.
In another series the test system is Oncorhynchus mykiss. Conditions: acute; duration: 96 hours; mortality.
A further series has as its system Pimephales promelas. Conditions: chronic/long-term; duration: 31 days; growth.
In the next series the test system is Perdix sp. The settings on record: acute; oral; unspecified; mortality.
The next series deals with Phasianus sp. The settings on record: acute; oral; unspecified; mortality.

Converted amounts (≈) assume the structure as drawn.

For the molecule `CCCCc1c(C)nc(NCC)nc1OS(=O)(=O)N(C)C` [Bupirimate], the LC50 with Anas platyrhynchos was above 2090 mg/kg-day; with Colinus virginianus, above 2580 mg/kg-day; in the series with Lepomis macrochirus, 1 µg/mL (≈ 3.16 µM); in the series on Oncorhynchus mykiss it was 1 µg/mL (≈ 3.16 µM); in the series with Tagia sp. (acute, duration: 14 days, mortality), above 1000 mg/kg. The LD50 was above 50 µg/piece with Apis mellifera; above 2750 mg/kg-day in the series with Chalcophaps sp.; above 5000 mg/kg-day in the series on Coturnix japonica (acute, oral, mortality); 4000 mg/kg-day in the series with Rattus norvegicus (acute, oral, mortality). In addition, the no-observed-adverse-effect level (NOAEL) (commonly the highest dose or exposure tested at which no adverse effect was seen) in the series with Canidae (chronic, duration: 2 years) turned out to be 5 mg/kg-day; in the series with Canidae (subchronic, duration: 90 days), 15 mg/kg-day. Moreover, the NOEC with Coturnix japonica (reproduction developmental) is at least 98 mg/kg-day; in the series on Daphnia magna, 0.56 mg/L; with Pimephales promelas, 0.1 mg/L; in the series on Tagia sp. (chronic/long-term), 7.3 mg/kg. Besides, the LEL with Encarsia formosa turned out to be 750 g/ha.

For `CCCCc1c(C)nc(NCC)[nH]c1=O` [Ethirimol], the NOEC in the series with Anas platyrhynchos (reproductive) was found to be 58 mg/kg-day. The LC50 with Anas platyrhynchos was above 1960 mg/kg-day; with Colinus virginianus, above 3380 mg/kg-day. In addition, the LD50 in the series on Perdix sp. and in the series on Phasianus sp. was above 3000 mg/kg-day in each case. For the same molecule, the NOAEL is 4000 mg/kg-day with Rattus norvegicus (acute, neurology); 3.5 mg/kg-day with Rattus norvegicus (chronic, duration: 2 years, clinical signs); 5 mg/kg-day in the series with Rattus norvegicus (reproduction developmental, body weight). Further, the NOEL with Rattus norvegicus (chronic, mortality) stood at 500 mg/kg-day.
